Assay results reported in the NIST ThermoML archive (doi:10.1016/j.tca.2017.10.021).
Numbers after ± are expanded uncertainties.

Details: Crystal, Transpiration method

vapor or sublimation pressure (503 K) [kPa] | vapor or sublimation pressure (543 K) [kPa] | Compound | vapor or sublimation pressure (463 K) [kPa] | vapor or sublimation pressure (473 K) [kPa] | vapor or sublimation pressure (483 K) [kPa] | vapor or sublimation pressure (493 K) [kPa] | vapor or sublimation pressure (513 K) [kPa] | vapor or sublimation pressure (393 K) [kPa] | vapor or sublimation pressure (403 K) [kPa] | vapor or sublimation pressure (413 K) [kPa] | vapor or sublimation pressure (423 K) [kPa] | vapor or sublimation pressure (435.5 K) [kPa] | vapor or sublimation pressure (455 K) [kPa]
2.758 ± 0.12 | 11.54 ± 0.52 | Cl.N [ammonium chloride (NH4Cl)] | 0.4871 ± 0.02 | 0.7748 ± 0.031 | 1.14 ± 0.045 | 1.683 ± 0.074 | 3.639 ± 0.18 |  |  |  |  |  | 
 |  | CN.Cl [methylammonium chloride] | 0.2868 ± 0.015 | 0.4424 ± 0.018 | 0.7211 ± 0.043 | 1.116 ± 0.057 | 2.499 ± 0.098 | 0.0044 ± 0.0003 | 0.0085 ± 0.0004 | 0.0171 ± 0.0008 | 0.0307 ± 0.0015 | 0.0643 ± 0.003 | 0.1683 ± 0.0068
